Experimental data published in paper PMC7763917, “A Facile Semisynthesis and Evaluation of Garcinoic Acid and Its Analogs for the Inhibition of Human DNA Polymerase β” (Molecules, 2020).

Biological target: T1, human DNA polymerase β (hpol β) (Homo sapiens, UniProt P06746)
Test: not given
Design: method as in PMID 16146411
Conditions: garcinoic acid analog with the dihydropyran ring opened; not in Table 2, no reference printed at the sentence; cited from earlier work

| SMILES | hpol β inhibition activity (in words) |
| --- | --- |
| C/C(=C\CC/C(C)=C/CC[C@@](C)(O)CCc1cc(O)cc(C)c1O)CC/C=C(\C)C(=O)O [chrysochlamic acid] | lack of hpol β inhibition activity |

Biological target: T1, human DNA polymerase β (hpol β)
Test: fluorescence-based polymerase inhibition assay
Assay type: biochemical
Conditions: 1 nM hpol β, 50 nM DNA, 100 μM dTTP, 25 °C; compounds tested from 1 μM to 120 μM; mean of triplicate; read-out: IC50 in inhibiting hpol β
Method: A fluorescence-based assay, as described previously, was used to determine the IC50 values for garcinoic acid and its homologs for human DNA polymerase β. DNA substrates were prepared as we reported previously. Briefly, a reporter strand conjugated with 5-carboxytetramethylrhodamine (TAMRA) and an unlabeled primer were annealed to a Black Hole Quencher (BHQ)-labelled template strand in a solution containing 10 mM Tris (pH 8.0) and 50 mM NaCl. The oligonucleotides were annealed in a 1:1.5:1.5 ratio for reporter, primer and template strand, respectively. The oligonucleotides were mixed and incubated for 3 min at 95 °C before cooling to room temperature.
The polymerase reaction was performed with 1 nM hpol β, 50 nM DNA, 100 μM dTTP and 2 mM MgCl2 in 50 mM Tris (pH 8.0) buffer containing 40 mM NaCl, 2 mM DTT and 0.01% (w/v) Tween 20. The reaction mix containing enzyme and dTTP were incubated for 5 min with the compound or DMSO in a 96-well plate before adding DNA to initiate the reaction. Polymerase reactions were performed at room temperature (25 °C). The plate was read continuously for one hour with a Synergy H4 plate reader (BioTek, λex = 525 nm, λem = 598 nm) (Winooski, VT, USA) after initiation of the reaction. The percent inhibition was calculated by dividing the rate of product formation at each compound concentration by the rate of product formation in DMSO control. The data was fit to a four-parameter logistic model with variable slope in Prism (San Diego, CA, USA) to calculate the IC50 values. The reactions were performed in triplicate and the mean IC50 value is reported with 95% confidence intervals.

| IC50 [µM] | SMILES |
| --- | --- |
| 23 | C/C(=C\CC/C(C)=C/CC[C@]1(C)CCc2cc(O)cc(C)c2O1)CC/C=C/C(=O)O [Compound 11, 13-[(R)-6-Hydroxy-2,8-dimethylchroman-2-yl]-6,10-dimethyltrideca-2E,6E,10E-trienoic acid] |
| > 120 | COC(=O)/C(C)=C/CC/C(C)=C/CC/C(C)=C/CC[C@]1(C)CCc2cc(OC)cc(C)c2O1 [Compound 15, Methyl 13-[(R)-6-methoxy-2,8-dimethylchroman-2-yl]-2,6,10-trimethyltrideca-2E,6E,10E-trienoate] |
| > 120 | COC(=O)/C(C)=C/CC/C(C)=C/CC[C@]1(C)CCc2cc(O)cc(C)c2O1 [Compound 13a, Methyl 9-[(R)-6-hydroxy-2,8-dimethylchroman-2-yl]-2,6-dimethylnona-2E,6E-dienoate] |
| > 120 | COC(=O)/C=C/CC[C@]1(C)CCc2cc(O)cc(C)c2O1 [Compound 12b, Methyl 5-[(R)-6-hydroxy-2,8-dimethylchroman-2-yl]pent-2E-enoate] |
| > 120 | COC(=O)/C=C/CC/C(C)=C/CC[C@]1(C)CCc2cc(O)cc(C)c2O1 [Compound 13b, Methyl 9-[(R)-6-hydroxy-2,8-dimethylchroman-2-yl]-6-methylnona-2E,6E-dienoate] |
| > 120 | COC(=O)/C=C/CC/C(C)=C/CC/C(C)=C/CC[C@]1(C)CCc2cc(O)cc(C)c2O1 [Compound 14b, Methyl 13-[(R)-6-hydroxy-2,8-dimethylchroman-2-yl]-6,10-dimethyltrideca-2E,6E,10E-trienoate] |
| 52 | C/C(=C\CC[C@]1(C)CCc2cc(O)cc(C)c2O1)CC/C=C(\C)C(=O)O [Compound 10a, 9-[(R)-6-Hydroxy-2,8-dimethylchroman-2-yl]-2,6-dimethylnona-2E,6E-dienoic acid] |
| 49 | C/C(=C\CC[C@]1(C)CCc2cc(O)cc(C)c2O1)CC/C=C/C(=O)O [Compound 10b, 9-[(R)-6-Hydroxy-2,8-dimethylchroman-2-yl]-6-methylnona-2E,6E-dienoic acid] |
| > 120 | Cc1cc(O)cc2c1O[C@](C)(CC/C=C/C(=O)O)CC2 [Compound 9b, 5-[(R)-6-Hydroxy-2,8-dimethylchroman-2-yl]pent-2E-enoic acid] |
| 31 | COc1cc(C)c2c(c1)CC[C@@](C)(CC/C=C(\C)CC/C=C(\C)CC/C=C(\C)C(=O)O)O2 [Compound 16, 13-[(R)-6-methoxy-2,8-dimethylchroman-2-yl]-2,6,10-trimethyltrideca-2E,6E,10E-trienoic Acid] |
| > 120 | COC(=O)/C(C)=C/CC[C@]1(C)CCc2cc(O)cc(C)c2O1 [Compound 12a, Methyl 5-[(R)-6-hydroxy-2,8-dimethylchroman-2-yl]-2-methylpent-2E-enoate] |
| > 120 | C/C(=C\CC[C@]1(C)CCc2cc(O)cc(C)c2O1)C(=O)O [Compound 9a, 5-[(R)-6-Hydroxy-2,8-dimethylchroman-2-yl]-2-methylpent-2E-enoic acid] |
| 11 | C/C(=C\CC/C(C)=C/CC[C@]1(C)CCc2cc(O)cc(C)c2O1)CC/C=C(\C)C(=O)O [Compound 1, 13-[(R)-6-Hydroxy-2,8-dimethylchroman-2-yl]-2,6,10-trimethyltrideca-2E,6E,10E-trienoic acid] |
| > 120 | COC(=O)/C(C)=C/CC/C(C)=C/CC/C(C)=C/CC[C@]1(C)CCc2cc(O)cc(C)c2O1 [Compound 14a, Methyl 13-[(R)-6-hydroxy-2,8-dimethylchroman-2-yl]-2,6,10-trimethyltrideca-2E,6E,10E-trienoate] |
